Experiment: Stability test in solution (pH 1.2 and pH 6.5)
Format: physicochemical
Conditions: 1 hour; for Compound's percent residue (%) pH 6.5: 20 mM phosphate buffer pH 6.5, 37° C.; for Compound's percent residue (%) pH 1.2: hydrochloric acid solution pH 1.2, 37° C.
Procedure: Test 2: Stability Test in Solution
A test to determine the stability of Inventive Compounds (I-A) or (I) in a hydrochloric acid solution (pH 1.2) and 20 mM phosphate buffer (pH 6.5) was conducted in accordance with the following method.
A compound was dissolved in a hydrochloric acid solution (pH 1.2) containing hydrochloric acid and sodium chloride or a 20 mM phosphate buffer (pH 6.5) containing disodium hydrogenphosphate, sodium dihydrogenphosphate and sodium chloride to prepare a solution with a concentration of about 50 ng/mL (near the saturated concentration when the compound was not dissolved). The solution was incubated at 37° C. for 1 hour and the compound's concentration before and after the incubation was quantified by high-performance liquid chromatography to calculate the percent residue of the compound. Compounds having low solubility were assessed as being not applicable.
The percent residues of representative compounds in the hydrochloric acid solution (pH 1.2) and the 20 mM phosphate buffer (pH 6.5) are shown in the following Table 2.

For `C[C@@H](OC(=O)C12CC3CC(CC(C3)C1)C2)OC(=O)[C@@]1(N)[C@H]2[C@@H](C[C@H]1OCc1ccc(Cl)cn1)[C@]2(F)C(=O)O` [Example 26, (1R,2R,3R,5R,6R)-2-amino-3-[(5-chloropyridin-2-yl)methoxy]-6-fluoro-2-({(1S)-1-[(tricyclo[3.3.1.1^3,7]decane-1-carbonyl)oxy]ethoxy}carbonyl)bicyclo[3.1.0]hexane-6-carboxylic acid], the “Compound's percent residue (%) pH 6.5” value was 94% and the “Compound's percent residue (%) pH 1.2” value was 97%.

With `N[C@]1(C(=O)OCOC(=O)c2ccccc2)[C@H]2[C@@H](C[C@H]1OCc1ccc(F)cc1)[C@]2(F)C(=O)O` [Example 36, (1R,2R,3R,5R,6R)-2-amino-2-{[(benzoyloxy)methoxy]carbonyl}-6-fluoro-3-[(4-fluorophenyl)methoxy]bicyclo[3.1.0]hexane-6-carboxylic acid] the “Compound's percent residue (%) pH 6.5” value was 99% and the “Compound's percent residue (%) pH 1.2” value was 100%.

With `Cc1ccc(CO[C@@H]2C[C@@H]3[C@H]([C@]2(N)C(=O)O[C@@H](C)OC(=O)O[C@@H]2C[C@H](C)CC[C@H]2C(C)C)[C@@]3(F)C(=O)O)cc1` [Example 34, (1R,2R,3R,5R,6R)-2-amino-6-fluoro-3-[(4-methylphenyl)methoxy]-2-({(1R)-1-[({[(1R,2S,5R)-5-methyl-2-(propan-2-yl)cyclohexyl]oxy}carbonyl)oxy]ethoxy}carbonyl)bicyclo[3.1.0]hexane-6-carboxylic acid] the “Compound's percent residue (%) pH 6.5” value was 94% and the “Compound's percent residue (%) pH 1.2” value was 100%.

For `COc1cc([C@@H](C)O[C@@H]2C[C@@H]3[C@H]([C@]2(N)C(=O)O[C@@H](C)OC(=O)C24CC5CC(CC(C5)C2)C4)[C@@]3(F)C(=O)O)ccc1F` [Example 25, (1R,2R,3R,5R,6R)-2-amino-6-fluoro-3-[(1R)-1-(4-fluoro-3-methoxyphenyl)ethoxy]-2-({(1S)-1-[(tricyclo[3.3.1.1^3,7]decane-1-carbonyl)oxy]ethoxy}carbonyl)bicyclo[3.1.0]hexane-6-carboxylic acid], the “Compound's percent residue (%) pH 6.5” value was 99% and the “Compound's percent residue (%) pH 1.2” value was 98%.

In the case of `C[C@@H](OC(=O)C12CC3CC(CC(C3)C1)C2)OC(=O)[C@@]1(N)[C@H]2[C@@H](C[C@H]1OCc1ccc(F)cc1)[C@]2(F)C(=O)O` [Example 4, (1R,2R,3R,5R,6R)-2-Amino-6-fluoro-3-[(4-fluorophenyl)methoxy]-2-({(1S)-1-[(tricyclo[3.3.1.1^3,7]decane-1-carbonyl)oxy]ethoxy}carbonyl)bicyclo[3.1.0]hexane-6-carboxylic acid], the “Compound's percent residue (%) pH 6.5” value is reported as 98% and the “Compound's percent residue (%) pH 1.2” value is reported as 98%.

With `CCCO[C@@H]1C[C@@H]2[C@H]([C@]1(N)C(=O)OC(C)OC(=O)O[C@@H]1C[C@@H]3CC[C@@]1(C)C3(C)C)[C@@]2(F)C(=O)O` (stereo partly drawn) [Example 18-B, (1R,2R,3R,5R,6R)-2-Amino-6-fluoro-3-propoxy-2-({1-[({[(1S,2R,4S)-1,7,7-trimethylbicyclo[2.2.1]heptan-2-yl]oxy}carbonyl)oxy]ethoxy}carbonyl)bicyclo[3.1.0]hexane-6-carboxylic acid] the “Compound's percent residue (%) pH 6.5” value was 112%.

For `C[C@@H](OC(=O)C12CC3CC(CC(C3)C1)C2)OC(=O)[C@@]1(N)[C@H]2[C@@H](C[C@H]1OCc1cccc(F)c1)[C@]2(F)C(=O)O` [Example 23, (1R,2R,3R,5R,6R)-2-amino-6-fluoro-3-[(3-fluorophenyl)methoxy]-2-({(1S)-1-[(tricyclo[3.3.1.1^3,7]decane-1-carbonyl)oxy]ethoxy}carbonyl)bicyclo[3.1.0]hexane-6-carboxylic acid], the “Compound's percent residue (%) pH 6.5” value was 100% and the “Compound's percent residue (%) pH 1.2” value was 101%.

For `CCCO[C@@H]1C[C@@H]2[C@H]([C@]1(N)C(=O)OC(C)OC(=O)O[C@H]1C[C@@H](C)CC[C@@H]1C(C)C)[C@@]2(F)C(=O)O` (single isomer, unassigned) [Example 15-B], the “Compound's percent residue (%) pH 6.5” value was 103% and the “Compound's percent residue (%) pH 1.2” value was 100%.
